The results in this text go back to ChEMBL document CHEMBL1938312, “Design and combinatorial synthesis of a novel kinase-focused library using click chemistry-based fragment assembly” (Bioorg Med Chem Lett, 2012).

Test [1] deals with T1, Ephrin type-B receptor 4 (Homo sapiens) (UniProt P54760).
T1 sequence (whole entry): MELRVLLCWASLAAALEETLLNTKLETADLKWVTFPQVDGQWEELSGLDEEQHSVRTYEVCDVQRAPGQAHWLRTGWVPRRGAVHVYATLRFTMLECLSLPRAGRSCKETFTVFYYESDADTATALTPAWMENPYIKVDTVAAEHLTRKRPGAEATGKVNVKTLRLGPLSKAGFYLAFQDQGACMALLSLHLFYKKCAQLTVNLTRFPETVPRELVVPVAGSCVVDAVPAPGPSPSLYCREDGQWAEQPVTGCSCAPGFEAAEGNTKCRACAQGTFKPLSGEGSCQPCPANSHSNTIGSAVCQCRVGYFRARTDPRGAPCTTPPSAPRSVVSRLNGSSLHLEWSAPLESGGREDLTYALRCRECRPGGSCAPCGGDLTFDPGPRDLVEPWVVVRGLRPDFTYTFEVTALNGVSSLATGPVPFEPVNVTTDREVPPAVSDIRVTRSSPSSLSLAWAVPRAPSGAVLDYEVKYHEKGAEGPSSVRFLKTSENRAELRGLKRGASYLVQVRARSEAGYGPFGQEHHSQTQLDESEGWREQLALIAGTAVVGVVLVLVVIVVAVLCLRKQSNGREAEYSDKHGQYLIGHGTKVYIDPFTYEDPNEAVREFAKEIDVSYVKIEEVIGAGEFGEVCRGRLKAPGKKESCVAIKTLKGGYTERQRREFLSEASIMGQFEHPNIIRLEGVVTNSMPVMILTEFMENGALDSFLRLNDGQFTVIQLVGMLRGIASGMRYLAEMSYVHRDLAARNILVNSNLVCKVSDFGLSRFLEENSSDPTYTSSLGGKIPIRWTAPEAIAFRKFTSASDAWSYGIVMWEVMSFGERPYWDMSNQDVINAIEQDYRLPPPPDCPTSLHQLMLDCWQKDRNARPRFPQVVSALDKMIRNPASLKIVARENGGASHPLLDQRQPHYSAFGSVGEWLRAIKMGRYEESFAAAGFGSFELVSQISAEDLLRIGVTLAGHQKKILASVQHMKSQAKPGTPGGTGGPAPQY
The test is described as follows: Inhibition of EPHB4 at 10 uM by colorimetric analysis.

The target of test [2] is Protein-tyrosine kinase 2-beta (Homo sapiens) (UniProt Q14289). As to the kind of experiment: Inhibition of PYK2 at 10 uM by colorimetric analysis.
Test [3] has as its target RAC-alpha serine/threonine-protein kinase (Homo sapiens) (UniProt P31749). As to the kind of experiment: Inhibition of AKT1 at 10 uM by colorimetric analysis.
Test [4] deals with 5'-AMP-activated protein kinase subunit gamma-1 (Homo sapiens) (UniProt P54619). As to the kind of experiment: Inhibition of AMPKgamma1 at 10 uM by colorimetric analysis.
Test [5] has as its target T2, Serine/threonine-protein kinase Chk1 (Homo sapiens) (UniProt O14757).
T2 sequence (whole entry): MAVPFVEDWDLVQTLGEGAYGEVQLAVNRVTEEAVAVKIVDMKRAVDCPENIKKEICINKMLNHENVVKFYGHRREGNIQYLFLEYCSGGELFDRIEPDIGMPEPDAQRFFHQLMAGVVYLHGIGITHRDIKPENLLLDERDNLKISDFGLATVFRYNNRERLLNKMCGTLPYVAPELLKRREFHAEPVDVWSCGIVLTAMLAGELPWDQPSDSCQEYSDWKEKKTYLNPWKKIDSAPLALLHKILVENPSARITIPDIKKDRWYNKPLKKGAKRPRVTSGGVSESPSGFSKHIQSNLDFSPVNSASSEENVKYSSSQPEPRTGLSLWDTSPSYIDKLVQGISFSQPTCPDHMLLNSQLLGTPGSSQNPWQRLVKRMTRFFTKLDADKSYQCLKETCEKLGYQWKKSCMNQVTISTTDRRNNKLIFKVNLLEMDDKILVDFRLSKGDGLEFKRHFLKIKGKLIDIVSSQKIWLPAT
The test is described as follows: Inhibition of CHK1 at 10 uM by colorimetric analysis.

Test [6] deals with Mitogen-activated protein kinase 14 (Homo sapiens) (UniProt Q16539). The test is described as follows: Inhibition of p38alpha at 10 uM by colorimetric analysis.
Test [7] deals with Serine/threonine-protein kinase PAK 4 (Homo sapiens) (UniProt O96013). The test is described as follows: Inhibition of PAK4 at 10 uM by colorimetric analysis.
Test [8] concerns the target Serine/threonine-protein kinase pim-1 (Homo sapiens) (UniProt P11309). The test is described as follows: Inhibition of PIM1 at 10 uM by colorimetric analysis.
The target in test [9] is cAMP-dependent protein kinase catalytic subunit alpha (Homo sapiens) (UniProt P17612). The test is described as follows: Inhibition of PKACa at 10 uM by colorimetric analysis.
The target in test [10] is T3, Serine/threonine-protein kinase D2 (Homo sapiens) (UniProt Q9BZL6).
T3 sequence (whole entry): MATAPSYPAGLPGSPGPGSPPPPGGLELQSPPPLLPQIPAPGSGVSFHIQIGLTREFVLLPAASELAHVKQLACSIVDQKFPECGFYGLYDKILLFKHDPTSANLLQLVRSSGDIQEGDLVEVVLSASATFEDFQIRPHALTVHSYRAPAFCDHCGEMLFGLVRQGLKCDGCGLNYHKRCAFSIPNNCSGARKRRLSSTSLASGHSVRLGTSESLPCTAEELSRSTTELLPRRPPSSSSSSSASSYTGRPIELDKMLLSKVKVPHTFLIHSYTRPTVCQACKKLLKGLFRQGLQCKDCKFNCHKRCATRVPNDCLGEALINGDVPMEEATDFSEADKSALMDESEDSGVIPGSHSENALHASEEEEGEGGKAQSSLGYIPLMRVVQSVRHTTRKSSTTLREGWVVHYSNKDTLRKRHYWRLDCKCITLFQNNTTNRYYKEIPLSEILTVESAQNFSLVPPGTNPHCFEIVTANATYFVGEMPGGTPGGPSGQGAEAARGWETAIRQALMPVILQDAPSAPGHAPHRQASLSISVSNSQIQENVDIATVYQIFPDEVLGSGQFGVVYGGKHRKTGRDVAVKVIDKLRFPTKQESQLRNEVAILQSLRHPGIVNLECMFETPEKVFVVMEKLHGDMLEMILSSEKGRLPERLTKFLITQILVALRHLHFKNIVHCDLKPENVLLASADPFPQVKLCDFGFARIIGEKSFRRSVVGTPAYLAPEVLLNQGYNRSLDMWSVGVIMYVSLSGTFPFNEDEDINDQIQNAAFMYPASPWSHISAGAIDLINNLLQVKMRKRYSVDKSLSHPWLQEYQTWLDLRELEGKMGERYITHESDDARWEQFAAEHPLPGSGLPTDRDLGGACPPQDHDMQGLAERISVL
The test is described as follows: Inhibition of PKD2 at 10 uM by colorimetric analysis.

The source made the active and inactive calls. No cut-off for these calls is given here.

Chain of RAC-alpha serine/threonine-protein kinase (Homo sapiens) (P31749 whole entry): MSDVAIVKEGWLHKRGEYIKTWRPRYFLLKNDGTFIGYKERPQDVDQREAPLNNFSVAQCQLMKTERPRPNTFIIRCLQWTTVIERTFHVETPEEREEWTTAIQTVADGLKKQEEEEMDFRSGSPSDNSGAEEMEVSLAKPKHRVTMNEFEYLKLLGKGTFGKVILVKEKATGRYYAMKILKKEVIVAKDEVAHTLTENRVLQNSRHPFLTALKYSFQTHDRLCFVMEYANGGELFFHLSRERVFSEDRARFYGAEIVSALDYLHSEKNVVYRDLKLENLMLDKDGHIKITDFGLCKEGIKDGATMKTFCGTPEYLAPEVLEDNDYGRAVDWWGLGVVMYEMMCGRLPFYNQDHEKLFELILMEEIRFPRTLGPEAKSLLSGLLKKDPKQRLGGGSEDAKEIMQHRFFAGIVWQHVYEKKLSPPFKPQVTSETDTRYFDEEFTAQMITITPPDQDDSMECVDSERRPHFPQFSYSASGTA
Chain of Mitogen-activated protein kinase 14 (Homo sapiens) (Q16539 whole entry): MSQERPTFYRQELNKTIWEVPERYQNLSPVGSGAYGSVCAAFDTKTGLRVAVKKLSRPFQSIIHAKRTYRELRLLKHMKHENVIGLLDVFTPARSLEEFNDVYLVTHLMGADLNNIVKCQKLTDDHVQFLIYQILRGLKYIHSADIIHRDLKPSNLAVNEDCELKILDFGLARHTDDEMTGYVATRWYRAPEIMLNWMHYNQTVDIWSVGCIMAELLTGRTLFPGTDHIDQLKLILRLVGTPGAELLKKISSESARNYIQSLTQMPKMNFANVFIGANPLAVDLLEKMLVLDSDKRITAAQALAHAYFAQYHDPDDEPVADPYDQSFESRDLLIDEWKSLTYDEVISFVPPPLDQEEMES
Chain of 5'-AMP-activated protein kinase subunit gamma-1 (Homo sapiens) (P54619 whole entry): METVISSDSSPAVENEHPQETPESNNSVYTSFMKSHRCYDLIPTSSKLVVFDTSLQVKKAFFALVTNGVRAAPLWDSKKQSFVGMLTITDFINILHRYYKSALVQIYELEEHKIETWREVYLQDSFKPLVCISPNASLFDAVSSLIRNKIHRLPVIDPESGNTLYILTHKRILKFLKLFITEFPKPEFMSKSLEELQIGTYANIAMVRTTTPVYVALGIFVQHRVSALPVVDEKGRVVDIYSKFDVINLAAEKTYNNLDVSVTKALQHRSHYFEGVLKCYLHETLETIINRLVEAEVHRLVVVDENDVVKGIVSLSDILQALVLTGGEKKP
Chain of Serine/threonine-protein kinase pim-1 (Homo sapiens) (P11309 whole entry, looked up): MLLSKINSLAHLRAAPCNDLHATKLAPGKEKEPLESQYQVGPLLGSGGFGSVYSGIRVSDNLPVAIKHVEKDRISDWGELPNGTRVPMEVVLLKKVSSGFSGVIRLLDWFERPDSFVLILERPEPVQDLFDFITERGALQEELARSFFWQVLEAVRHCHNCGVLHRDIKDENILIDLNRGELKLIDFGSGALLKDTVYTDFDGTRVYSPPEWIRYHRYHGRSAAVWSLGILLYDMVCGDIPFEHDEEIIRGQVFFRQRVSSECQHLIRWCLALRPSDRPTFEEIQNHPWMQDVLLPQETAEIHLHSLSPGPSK
Chain of Serine/threonine-protein kinase PAK 4 (Homo sapiens) (O96013 whole entry, looked up): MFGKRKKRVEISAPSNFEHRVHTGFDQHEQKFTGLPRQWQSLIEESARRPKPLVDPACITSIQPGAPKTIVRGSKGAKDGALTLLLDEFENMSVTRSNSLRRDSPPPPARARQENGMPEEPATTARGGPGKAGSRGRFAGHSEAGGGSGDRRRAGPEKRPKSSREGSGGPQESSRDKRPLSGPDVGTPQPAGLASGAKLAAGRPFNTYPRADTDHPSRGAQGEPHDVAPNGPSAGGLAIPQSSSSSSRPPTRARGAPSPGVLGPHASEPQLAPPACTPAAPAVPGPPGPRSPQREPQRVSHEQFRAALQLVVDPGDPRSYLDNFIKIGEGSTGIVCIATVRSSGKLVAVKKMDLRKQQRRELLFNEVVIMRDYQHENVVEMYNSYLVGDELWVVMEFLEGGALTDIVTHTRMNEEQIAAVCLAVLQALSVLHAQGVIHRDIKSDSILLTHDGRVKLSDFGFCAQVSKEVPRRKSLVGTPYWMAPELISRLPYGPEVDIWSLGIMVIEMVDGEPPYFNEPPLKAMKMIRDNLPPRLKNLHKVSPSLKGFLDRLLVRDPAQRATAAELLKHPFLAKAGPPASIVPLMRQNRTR
Chain of Protein-tyrosine kinase 2-beta (Homo sapiens) (Q14289 whole entry, looked up): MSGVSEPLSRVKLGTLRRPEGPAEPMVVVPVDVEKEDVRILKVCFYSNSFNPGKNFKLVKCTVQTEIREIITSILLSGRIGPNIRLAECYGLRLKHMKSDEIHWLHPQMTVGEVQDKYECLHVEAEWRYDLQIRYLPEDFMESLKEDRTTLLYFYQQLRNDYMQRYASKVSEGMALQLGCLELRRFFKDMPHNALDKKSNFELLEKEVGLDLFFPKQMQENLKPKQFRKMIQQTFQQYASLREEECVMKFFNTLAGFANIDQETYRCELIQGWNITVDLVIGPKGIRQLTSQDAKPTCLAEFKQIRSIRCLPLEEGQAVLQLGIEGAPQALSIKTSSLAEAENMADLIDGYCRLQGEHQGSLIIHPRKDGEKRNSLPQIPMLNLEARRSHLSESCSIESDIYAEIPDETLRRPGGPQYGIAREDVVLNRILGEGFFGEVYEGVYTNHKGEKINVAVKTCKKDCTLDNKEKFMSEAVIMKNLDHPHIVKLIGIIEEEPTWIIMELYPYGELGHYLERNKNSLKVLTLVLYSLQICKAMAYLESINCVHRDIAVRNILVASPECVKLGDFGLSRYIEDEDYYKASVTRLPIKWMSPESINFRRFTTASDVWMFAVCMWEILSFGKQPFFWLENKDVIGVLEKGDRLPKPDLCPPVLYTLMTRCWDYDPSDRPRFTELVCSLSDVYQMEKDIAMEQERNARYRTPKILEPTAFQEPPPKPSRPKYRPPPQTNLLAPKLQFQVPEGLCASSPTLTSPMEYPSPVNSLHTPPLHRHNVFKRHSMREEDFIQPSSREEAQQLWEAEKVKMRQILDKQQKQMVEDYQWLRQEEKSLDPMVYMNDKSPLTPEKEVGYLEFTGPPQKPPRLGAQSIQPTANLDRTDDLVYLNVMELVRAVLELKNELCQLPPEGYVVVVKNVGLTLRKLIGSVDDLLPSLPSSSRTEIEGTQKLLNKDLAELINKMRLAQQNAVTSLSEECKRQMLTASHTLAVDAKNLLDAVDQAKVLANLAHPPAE

As for `Clc1ccc(-n2cc(-c3ccncc3)nn2)cc1`, the inhibition result in [1] and in test [2] was “inactive” in each case. Besides, the inhibition result in test [3], in test [4], in test [5], in test [6], in [7] and in test [8] was “Active” each time. The inhibition entry in [9] and in test [10] was “Active” in each case.

Regarding `Clc1cccc(-n2nncc2-c2ccncc2)c1`, the inhibition result in test [1] and in [2] was “inactive” throughout. Further, the inhibition entry in test [3], in [4], in test [5], in [6], in test [7] and in test [8] was “Active” in each case. The inhibition result in [9] and in test [10] was “Active” each time.

With `Clc1ccc(-n2nncc2-c2ccncc2)cc1`, the inhibition entry in test [1] and in test [2] was “inactive” in each case. Besides, the inhibition result in [3], in test [4], in [5], in test [6], in [7] and in [8] was “Active” in each case. For the same molecule, the inhibition result in test [9] and in test [10] was “Active” throughout.

On to `Clc1cccc(-n2cc(-c3ccncc3)nn2)c1`, for which the inhibition result in test [1] and in test [2] was “inactive” throughout. The inhibition result in test [3], in [4], in test [5], in test [6], in test [7] and in [8] was “Active” in each case. For the same molecule, the inhibition entry in [9] and in test [10] was “Active” in each case.
